We go through 4 molecules from patent US20170008888A1 (KYORIN PHARMACEUTICAL CO., LTD., priority 2014, published 2017).

What all share (assay type): binding
The target in one assay is T1, ERK5 (Homo sapiens, UniProt Q13164).
T1 construct: screened for activity against several kinases in Jurkat cells; endogenous in cells; host or cells: Jurkat cell lysate
In words: Probe-based (AX9989 acyl phosphate ATP probe) kinase profiling in Jurkat lysate: ERK5. The settings on record: for IC50: Jurkat lysate; for inhibition at 10 µM: screening concentration 10 μM, read-out: ERK5 Inhibition % at indicated screening concentration. As for the experimental part: (§1) In this example, potency of the compounds as ERK5 inhibitors was assessed, and the compounds were screened for activity against several kinases in Jurkat cells.
(§2) Jurkat cell pellets were resuspended in four volumes of lysis buffer (50 mM HEPES pH 7.5, 150 mM NaCl, 0.1% Triton-X-100, 1% v/v phosphatase, inhibitor cocktail II [EMD/Calbiochem, #524625]), sonicated using a tip, sonicator, and Dounce homogenized. Lysate was cleared by centrifugation, at 16,000 g for 15 min., was gel filtered (BioRad 10DG) and MnCl2 was then added to a final concentration of 20 mM before treatment with the test compound and probe labeling. […] All compound treatments were performed at room temperature.
(§3) Acyl phosphate ATP probe (AX9989) labeling reactions were performed at room temperature with a final probe concentration of 5 μM after a 15 min pre-incubation of lysate with a test compound. All reactions were performed in duplicate, using 445 μl/sample at 5 mg/ml. Probe-labeled lysates were denatured and reduced (6 M urea, 10 mM DTT, 65° C., 15 min), alkylated (40 mM iodoacetamide, 37° C., 30 min, and gel filtered (Sephadex G25) into 10 mM ammonium bicarbonate, 2 M urea, 5 mM methionine. The desalted protein mixture was digested with trypsin (0.015 mg/ml) for 1 hr at 37° C., and desthiobiotinylated peptides were captured using a […] high-capacity streptavidin resin (Thermo Scientific). Captured peptides were then washed extensively using 150 μl/wash with three different wash buffers: (A) 3 times with 1% triton, 0.5% tergitol, 1 mM EDTA in PBS; (B) 18 times with PBS; and (C) 8 times with HPLC grade water. Peptides were eluted from the streptavidin beads using two 35-μL washes of a 50% CH3CN/water mixture containing 0.1% TFA at room temperature.
(§4) Kinase active site peptides were identified and quantified using LC/MS. Percent inhibition was calculated as the normalized decrease in the ESI-MS fragment intensities of probe-labeled peptides in samples incubated with the test compound compared to those without.
ERK5 IC50 values were calculated from the percent inhibition and the screening concentration.

For the next assay, the target named is T2, AurA (Homo sapiens, UniProt O14965).
T2 construct: screened for activity against several kinases in Jurkat cells; endogenous in cells; host or cells: Jurkat cell lysate
T2 sequence (O14965 1-403): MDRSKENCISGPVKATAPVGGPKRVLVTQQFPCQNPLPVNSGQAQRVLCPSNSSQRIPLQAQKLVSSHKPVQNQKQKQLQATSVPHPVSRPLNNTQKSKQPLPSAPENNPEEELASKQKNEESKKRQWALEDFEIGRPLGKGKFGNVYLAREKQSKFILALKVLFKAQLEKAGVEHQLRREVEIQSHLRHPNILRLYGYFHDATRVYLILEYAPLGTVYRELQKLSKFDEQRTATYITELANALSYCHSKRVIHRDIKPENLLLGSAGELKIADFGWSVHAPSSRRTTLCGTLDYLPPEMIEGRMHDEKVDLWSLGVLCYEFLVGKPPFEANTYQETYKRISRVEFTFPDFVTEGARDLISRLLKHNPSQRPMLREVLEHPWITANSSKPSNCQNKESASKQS
As to the kind of experiment: Probe-based (AX9989) kinase profiling in Jurkat lysate: AurA. The following applies: for inhibition at 10 µM: screening concentration 10 μM, read-out: AurA Inhibition % at indicated screening concentration. As for the experimental part:
as §1, §2, §3, §4

For a further assay, the target named is T3, JAK1 (Homo sapiens, UniProt P23458).
T3 construct: screened for activity against several kinases in Jurkat cells; endogenous in cells; host or cells: Jurkat cell lysate
T3 sequence (P23458 whole entry): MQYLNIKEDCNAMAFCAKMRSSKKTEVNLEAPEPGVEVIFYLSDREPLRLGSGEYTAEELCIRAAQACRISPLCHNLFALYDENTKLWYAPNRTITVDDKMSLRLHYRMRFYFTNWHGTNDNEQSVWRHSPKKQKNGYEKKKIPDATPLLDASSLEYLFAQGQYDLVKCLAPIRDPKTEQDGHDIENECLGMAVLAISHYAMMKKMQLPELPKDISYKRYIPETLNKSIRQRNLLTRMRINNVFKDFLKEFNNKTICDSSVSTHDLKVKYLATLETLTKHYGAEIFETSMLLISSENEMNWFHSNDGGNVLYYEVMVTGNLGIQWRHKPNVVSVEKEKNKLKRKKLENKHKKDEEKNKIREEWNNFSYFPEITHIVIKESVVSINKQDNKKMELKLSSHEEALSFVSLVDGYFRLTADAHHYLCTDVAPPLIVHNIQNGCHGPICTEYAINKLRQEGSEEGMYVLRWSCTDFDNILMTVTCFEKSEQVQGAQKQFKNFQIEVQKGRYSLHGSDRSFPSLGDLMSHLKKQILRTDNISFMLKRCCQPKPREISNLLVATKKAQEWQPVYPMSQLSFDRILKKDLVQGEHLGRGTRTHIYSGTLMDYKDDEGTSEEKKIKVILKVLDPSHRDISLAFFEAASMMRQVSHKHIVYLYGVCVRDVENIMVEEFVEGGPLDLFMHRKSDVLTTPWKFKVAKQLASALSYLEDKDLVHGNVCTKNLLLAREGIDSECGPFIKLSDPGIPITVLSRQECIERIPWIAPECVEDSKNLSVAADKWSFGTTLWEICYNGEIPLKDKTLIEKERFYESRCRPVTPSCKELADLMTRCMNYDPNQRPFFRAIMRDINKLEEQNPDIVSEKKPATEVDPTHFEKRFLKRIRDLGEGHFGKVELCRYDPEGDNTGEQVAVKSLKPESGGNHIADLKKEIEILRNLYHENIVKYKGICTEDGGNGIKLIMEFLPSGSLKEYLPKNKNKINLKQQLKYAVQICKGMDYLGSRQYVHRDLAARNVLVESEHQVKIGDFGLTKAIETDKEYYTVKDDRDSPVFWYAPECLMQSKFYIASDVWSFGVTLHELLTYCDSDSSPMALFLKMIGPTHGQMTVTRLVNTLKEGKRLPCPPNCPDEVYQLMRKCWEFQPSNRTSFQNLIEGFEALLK
As to the kind of experiment: Probe-based (AX9989) kinase profiling in Jurkat lysate: JAK1. The settings on record: for inhibition at 10 µM: screening concentration 10 μM, read-out: JAK1 Inhibition % at indicated screening concentration. The method, then: as §1, §2, §3, §4

The next assay has as its system AMPKa1 or AMPKa2. In words: Probe-based (AX9989) kinase profiling in Jurkat lysate: AMPKa1 or AMPKa2. The settings on record: for AMPKa1 or AMPKa2 Inhibition % at indicated screening concentration: screening concentration 10 μM. As for the experimental part: as §1, §2, §3, §4
A further assay concerns AurB or AurC. As to the kind of experiment: Probe-based (AX9989) kinase profiling in Jurkat lysate: AurB or AurC. The following applies: for AurB or AurC Inhibition % at indicated screening concentration: screening concentration 10 μM. As for the experimental part:
as §1, §2, §3, §4

For the next assay, the target named is T4, TAO2 (Homo sapiens, UniProt Q9UL54).
T4 construct: screened for activity against several kinases in Jurkat cells; endogenous in cells; host or cells: Jurkat cell lysate
T4 sequence (Q9UL54 1-1235): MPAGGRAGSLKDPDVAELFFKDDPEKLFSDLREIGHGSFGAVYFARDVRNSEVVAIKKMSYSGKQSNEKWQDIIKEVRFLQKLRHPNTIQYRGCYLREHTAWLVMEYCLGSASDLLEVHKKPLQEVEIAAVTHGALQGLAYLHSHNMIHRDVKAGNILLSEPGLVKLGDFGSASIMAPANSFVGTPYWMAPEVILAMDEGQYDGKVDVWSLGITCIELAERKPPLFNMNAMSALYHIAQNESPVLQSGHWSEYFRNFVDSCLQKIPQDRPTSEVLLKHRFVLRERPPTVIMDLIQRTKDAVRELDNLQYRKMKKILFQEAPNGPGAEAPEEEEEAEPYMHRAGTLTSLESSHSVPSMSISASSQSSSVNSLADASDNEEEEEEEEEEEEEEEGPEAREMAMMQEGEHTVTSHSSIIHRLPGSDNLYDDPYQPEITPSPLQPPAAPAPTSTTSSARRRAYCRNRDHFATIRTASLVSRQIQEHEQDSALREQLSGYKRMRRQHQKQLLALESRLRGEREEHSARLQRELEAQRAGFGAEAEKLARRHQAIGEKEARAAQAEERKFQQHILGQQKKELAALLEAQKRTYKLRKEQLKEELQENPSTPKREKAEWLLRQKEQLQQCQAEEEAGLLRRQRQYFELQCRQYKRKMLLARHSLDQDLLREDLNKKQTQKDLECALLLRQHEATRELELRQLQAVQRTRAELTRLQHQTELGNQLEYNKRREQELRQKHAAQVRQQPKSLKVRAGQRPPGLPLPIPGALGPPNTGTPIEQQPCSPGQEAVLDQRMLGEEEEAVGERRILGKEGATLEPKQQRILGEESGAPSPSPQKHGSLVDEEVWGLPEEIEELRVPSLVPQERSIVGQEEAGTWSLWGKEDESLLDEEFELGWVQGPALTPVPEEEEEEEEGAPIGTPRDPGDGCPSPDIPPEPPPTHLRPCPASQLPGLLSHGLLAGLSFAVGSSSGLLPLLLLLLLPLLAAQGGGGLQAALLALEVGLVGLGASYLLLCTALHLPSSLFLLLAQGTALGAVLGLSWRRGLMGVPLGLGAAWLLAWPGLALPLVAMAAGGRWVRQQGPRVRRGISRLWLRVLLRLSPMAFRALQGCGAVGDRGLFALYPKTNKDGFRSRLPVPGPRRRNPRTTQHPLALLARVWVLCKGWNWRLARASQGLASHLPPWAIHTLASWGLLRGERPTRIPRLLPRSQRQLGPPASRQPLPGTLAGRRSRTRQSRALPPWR
As to the kind of experiment: Probe-based (AX9989) kinase profiling in Jurkat lysate: TAO2. The following applies: for inhibition at 10 µM: screening concentration 10 μM, read-out: TAO2 Inhibition % at indicated screening concentration. The method, then: as §1, §2, §3, §4

A further assay relates to ABL or ARG. In words: Probe-based (AX9989) kinase profiling in Jurkat lysate: ABL or ARG. The following applies: for ABL or ARG Inhibition % at indicated screening concentration: screening concentration 10 μM. The method, then:
as §1, §2, §3, §4

The target in a further assay is T5, ACK (Homo sapiens, UniProt Q07912).
T5 construct: screened for activity against several kinases in Jurkat cells; endogenous in cells; host or cells: Jurkat cell lysate
T5 sequence (Q07912 whole entry): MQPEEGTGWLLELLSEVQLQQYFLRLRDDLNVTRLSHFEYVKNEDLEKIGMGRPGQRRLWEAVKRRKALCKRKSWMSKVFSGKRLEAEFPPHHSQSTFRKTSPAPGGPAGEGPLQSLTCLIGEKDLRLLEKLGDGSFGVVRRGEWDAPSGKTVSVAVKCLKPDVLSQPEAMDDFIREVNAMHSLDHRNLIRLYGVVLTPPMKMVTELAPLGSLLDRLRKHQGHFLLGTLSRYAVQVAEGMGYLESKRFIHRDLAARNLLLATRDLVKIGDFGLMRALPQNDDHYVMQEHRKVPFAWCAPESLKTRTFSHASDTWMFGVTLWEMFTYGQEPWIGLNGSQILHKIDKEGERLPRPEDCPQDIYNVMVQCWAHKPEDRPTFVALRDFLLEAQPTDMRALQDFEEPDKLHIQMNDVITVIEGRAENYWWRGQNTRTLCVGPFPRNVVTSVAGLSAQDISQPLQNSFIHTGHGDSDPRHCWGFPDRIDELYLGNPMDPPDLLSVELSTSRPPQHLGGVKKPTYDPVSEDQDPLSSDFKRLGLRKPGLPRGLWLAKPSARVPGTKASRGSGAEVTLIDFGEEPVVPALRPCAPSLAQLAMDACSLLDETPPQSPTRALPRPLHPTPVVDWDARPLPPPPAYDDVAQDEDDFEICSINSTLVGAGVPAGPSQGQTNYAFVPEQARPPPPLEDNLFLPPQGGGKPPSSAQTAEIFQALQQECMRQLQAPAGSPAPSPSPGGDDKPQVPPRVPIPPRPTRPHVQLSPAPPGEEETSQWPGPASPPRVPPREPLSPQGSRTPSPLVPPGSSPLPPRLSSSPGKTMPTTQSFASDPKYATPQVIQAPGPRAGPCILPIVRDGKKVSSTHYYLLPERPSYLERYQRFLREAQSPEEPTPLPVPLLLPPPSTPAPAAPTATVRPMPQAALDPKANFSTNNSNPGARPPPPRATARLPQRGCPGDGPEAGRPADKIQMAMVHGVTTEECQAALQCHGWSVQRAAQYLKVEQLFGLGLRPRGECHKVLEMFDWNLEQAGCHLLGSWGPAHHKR
As to the kind of experiment: Probe-based (AX9989) kinase profiling in Jurkat lysate: ACK. The settings on record: for inhibition at 10 µM: screening concentration 10 μM, read-out: ACK Inhibition % at indicated screening concentration. As for the experimental part:
as §1, §2, §3, §4

[1] abbreviates: calculated from percent inhibition of AX9989 labeling and the screening concentration.
Where [2] appears, read: calculated from percent inhibition and screening concentration, AX9989 probe.

T1 sequence (Q13164 whole entry): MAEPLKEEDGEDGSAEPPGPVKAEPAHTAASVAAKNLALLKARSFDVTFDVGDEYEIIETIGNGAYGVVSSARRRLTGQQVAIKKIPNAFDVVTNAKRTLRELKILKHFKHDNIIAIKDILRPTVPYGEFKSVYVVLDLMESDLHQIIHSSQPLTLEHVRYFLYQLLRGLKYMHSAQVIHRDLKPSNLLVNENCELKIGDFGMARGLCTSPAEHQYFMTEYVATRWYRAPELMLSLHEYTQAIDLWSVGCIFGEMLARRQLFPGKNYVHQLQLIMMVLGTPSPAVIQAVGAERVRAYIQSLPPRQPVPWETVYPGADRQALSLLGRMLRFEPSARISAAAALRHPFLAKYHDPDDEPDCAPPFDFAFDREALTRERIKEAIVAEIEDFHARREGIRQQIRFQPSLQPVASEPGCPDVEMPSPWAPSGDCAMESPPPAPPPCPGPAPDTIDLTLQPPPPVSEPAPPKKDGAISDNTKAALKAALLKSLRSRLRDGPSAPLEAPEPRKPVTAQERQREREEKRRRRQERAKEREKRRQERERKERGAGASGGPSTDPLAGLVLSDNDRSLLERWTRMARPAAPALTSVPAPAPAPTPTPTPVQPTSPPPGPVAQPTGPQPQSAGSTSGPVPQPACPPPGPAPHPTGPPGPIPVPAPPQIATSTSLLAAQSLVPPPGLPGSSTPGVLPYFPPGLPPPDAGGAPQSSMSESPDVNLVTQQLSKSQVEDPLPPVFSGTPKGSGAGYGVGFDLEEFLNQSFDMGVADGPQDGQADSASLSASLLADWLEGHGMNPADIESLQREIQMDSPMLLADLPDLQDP

Regarding `CCOc1cc(Cl)ccc1Nc1cc2c(cn1)N(C)C(=O)c1ccccc1N2C` [Compound 104], the IC50 at ERK5 (setting [1]) was over 500 nM. Also, the inhibition at 1 µM was 35 to 50% on ERK5 (screening concentration 1.0 μM, read-out: Kinase inhibition % at indicated screening concentration: ERK5); at most 35% on AurA (screening concentration 1.0 μM, read-out: Kinase inhibition % at indicated screening concentration: AurA); at most 35% at JAK1 (screening concentration 1.0 μM, read-out: Kinase inhibition % at indicated screening concentration: JAK1); at most 35% on TAO2 (screening concentration 1.0 μM, read-out: Kinase inhibition % at indicated screening concentration: TAO2); at most 35% at ACK (screening concentration 1.0 μM, read-out: Kinase inhibition % at indicated screening concentration: ACK). Besides, the “Kinase inhibition % at indicated screening concentration: AMPKa1 or AMPKa2” value in the assay on AMPKa1 or AMPKa2 (screening concentration 1.0 μM) is recorded as “E (E is ≦35%)”. Also, the “Kinase inhibition % at indicated screening concentration: AurB or AurC” value in the assay on AurB or AurC (screening concentration 1.0 μM) is recorded as “E (E is ≦35%)”. In addition, the “Kinase inhibition % at indicated screening concentration: ABL or ARG” value with ABL or ARG (screening concentration 1.0 μM) is “E (E is ≦35%)”.
As for `CCOc1cc(CO)ccc1Nc1cc2c(cn1)N(C)C(=O)c1ccccc1N2C` [Compound 112], on ERK5 (setting [1]), the IC50 is 101 to 500 nM. The inhibition at 0.1 µM at ERK5 (screening concentration 0.1 μM, read-out: Kinase inhibition % at indicated screening concentration: ERK5) was 35 to 50%; at AurA (screening concentration 0.1 μM, read-out: Kinase inhibition % at indicated screening concentration: AurA), at most 35%; at JAK1 (screening concentration 0.1 μM, read-out: Kinase inhibition % at indicated screening concentration: JAK1) it was at most 35%; on TAO2 (screening concentration 0.1 μM, read-out: Kinase inhibition % at indicated screening concentration: TAO2), at most 35%; at ACK (screening concentration 0.1 μM, read-out: Kinase inhibition % at indicated screening concentration: ACK), at most 35%. In addition, the “Kinase inhibition % at indicated screening concentration: AMPKa1 or AMPKa2” value in the assay on AMPKa1 or AMPKa2 (screening concentration 0.1 μM) was “E (E is ≦35%)”. For the same molecule, the “Kinase inhibition % at indicated screening concentration: AurB or AurC” value in the assay on AurB or AurC (screening concentration 0.1 μM) was “E (E is ≦35%)”. The “Kinase inhibition % at indicated screening concentration: ABL or ARG” value in the assay on ABL or ARG (screening concentration 0.1 μM) is reported as “E (E is ≦35%)”.
Regarding `CCOc1cc(C(=O)O)ccc1Nc1cc2c(cn1)N(C)S(=O)(=O)c1ccccc1N2C` [Compound T1], the IC50 at ERK5 (setting [2]) is over 500 nM. The inhibition at 10 µM on ERK5, on AurA, on JAK1, on TAO2 and on ACK was at most 35% each time. In addition, in the assay on AMPKa1 or AMPKa2, the “AMPKa1 or AMPKa2 Inhibition % at indicated screening concentration” value was “E (E is ≦35%)”. In addition, the “AurB or AurC Inhibition % at indicated screening concentration” value in the assay on AurB or AurC is listed as “E (E is ≦35%)”. Besides, the “ABL or ARG Inhibition % at indicated screening concentration” value in the assay with ABL or ARG is reported as “E (E is ≦35%)”.
With `CCOc1cc(C(=O)N2CCC(N3CCCC3)CC2)ccc1Nc1cc2c(cn1)N(C)S(=O)(=O)c1ccccc1N2C` [Compound T2], the IC50 on ERK5 (setting [2]) is over 500 nM. Further, the inhibition at 10 µM is 35 to 50% at ERK5; at most 35% on AurA; at most 35% on JAK1; at most 35% on TAO2; at most 35% at ACK. For the same molecule, in the assay on AMPKa1 or AMPKa2, the “AMPKa1 or AMPKa2 Inhibition % at indicated screening concentration” value is “E (E is ≦35%)”. Besides, the “AurB or AurC Inhibition % at indicated screening concentration” value in the assay on AurB or AurC is listed as “E (E is ≦35%)”. Further, the “ABL or ARG Inhibition % at indicated screening concentration” value in the assay on ABL or ARG is “E (E is ≦35%)”.
